What was measured:
Assay type in all cases: cell-based
KD 488 = test: In vitro activity against AIDS related Lymphoma (ARL) cell lines (NCI protocol); conditions: Homo sapiens, KD 488, ARL cell line
[1] = system: NCI's 60 human tumor cell line assay; test: cells; conditions: 60 cell, 48 h, read-out: IC50 (mean GI50 against NCI's 60 human tumor cell line assay)
Method: (§1) Each test compound was screened against a battery of 60 human cell lines obtained from eight organs. In a typical procedure, the cell suspensions that were diluted according to the particular cell type and the expected target cell density (5000-40,000 cells per well based on cell growth characteristics) were added into 96-well microtiter plates. Inoculates were allowed a preincubation period of 24h at 37°C. for stabilization. Dilutions at twice the intended test concentrations were added at time zero in 100-µl aliquots to microtiter plate wells. Usually test compounds were evaluated at five 10-fold dilutions. The highest well concentration used in the test is 10^-4M. The cells are then incubated in the presence of drug (the test compound) for further 48h in 5% CO2 atmosphere and 100% humidity. At the end of this time, the adherent cells are fixed to the plate by means of trichloroacetic acid, and after a number of washes, the cell layer is treated with the protein stain Sulforhodamine B. The optical density which is proportional to protein mass, is then read by automated spectrophotometric plate readers at a wavelength of 515 nm. Readings are transferred to a microcomputer and final reports are generated using especially developed software.

MCF 7 = test: NCI in vitro 60 human tumor cell line assay; conditions: MCF7, 48 h, read-out: Total Growth Inhibition (TGI)
Method: as §1

HT 29 = test: NCI in vitro 60 human tumor cell line assay; conditions: Homo sapiens, HT-29, 48 h, read-out: Total Growth Inhibition (TGI)
H 460 = test: NCI in vitro 60 human tumor cell line assay; conditions: Homo sapiens, NCI-H460, 48 h, read-out: Total Growth Inhibition (TGI)
Method: as §1

HCC 2998 = test: NCI in vitro 60 human tumor cell line assay; conditions: Homo sapiens, HCC 2998, 48 h, read-out: Total Growth Inhibition (TGI)
Method: as §1

HOP 62 = test: NCI in vitro 60 human tumor cell line assay; conditions: HOP-62, 48 h, read-out: Total Growth Inhibition (TGI)
H 226 = test: NCI in vitro 60 human tumor cell line assay; conditions: NCI-H226, 48 h, read-out: Total Growth Inhibition (TGI)
Method: as §1

H 23 = test: NCI in vitro 60 human tumor cell line assay; conditions: NCI-H23, 48 h, read-out: Total Growth Inhibition (TGI)
Method: as §1

COLO 205 = test: NCI in vitro 60 human tumor cell line assay; conditions: COLO 205, 48 h, read-out: Total Growth Inhibition (TGI)
Method: as §1

KM 12 = test: NCI in vitro 60 human tumor cell line assay; conditions: KM12, 48 h, read-out: Total Growth Inhibition (TGI)
Method: as §1

[2] = NCI in vitro 60 human tumor cell line assay; conditions: 48 h, read-out: Total Growth Inhibition (TGI)
Method: as §1

MCF7 / ADR / RES = test: NCI in vitro 60 human tumor cell line assay; conditions: 48 h, read-out: Total Growth Inhibition (TGI)
Method: as §1

H 322M = test: NCI in vitro 60 human tumor cell line assay; conditions: NCI-H322M, 48 h, read-out: Total Growth Inhibition (TGI)
Method: as §1

HCT 15 = test: NCI in vitro 60 human tumor cell line assay; conditions: HCT-15, 48 h, read-out: Total Growth Inhibition (TGI)
Method: as §1

UO 31 = test: NCI in vitro 60 human tumor cell line assay; conditions: UO-31, 48 h, read-out: Total Growth Inhibition (TGI)
Method: as §1

HOP 92 = test: NCI in vitro 60 human tumor cell line assay; conditions: HOP-92, 48 h, read-out: Total Growth Inhibition (TGI)
H 522 = test: NCI in vitro 60 human tumor cell line assay; conditions: NCI-H522, 48 h, read-out: Total Growth Inhibition (TGI)
Method: as §1

HCT 116 = test: NCI in vitro 60 human tumor cell line assay; conditions: HCT-116, 48 h, read-out: Total Growth Inhibition (TGI)
MCF 7/ ADR = test: NCI in vitro 60 human tumor cell line assay; conditions: Homo sapiens, NCI/ADR-RES, 48 h, read-out: Total Growth Inhibition (TGI)
Method: as §1

MDA-MB-435 = test: NCI in vitro 60 human tumor cell line assay; conditions: MDA-MB-435, 48 h, read-out: Total Growth Inhibition (TGI)
MDA-N = test: NCI in vitro 60 human tumor cell line assay; conditions: BREAST, 48h, read-out: Total Growth Inhibition (TGI)
Method: (§2) Each test compound was screened against a battery of 60 human cell lines obtained from eight organs. In a typical procedure, the cell suspensions that were diluted according to the particular cell type and the expected target cell density (5000-40,000 cells per well based on cell growth characteristics) were added into 96-well microtiter plates. Inoculates were allowed a preincubation period of 24h at 37°C. for stabilization. Dilutions at twice the intended test concentrations were added at time zero in 100-µl aliquots to microtiter plate wells. Usually test compounds were evaluated at five 10-fold dilutions. The highest well concentration used in the test is 10^-4M. The cells are then incubated in the presence of drug (the test compound) for further 48h in 5% CO2 atmosphere and 100% humidity. At the end of this time, the adherent cells are fixed to the plate by means of trichloroacetic acid, and after a number of washes, the cell layer is treated with the protein stain Sulforhodamine B. The optical density which is proportional to protein mass, is then read by automated spectrophotometric plate readers at a wavelength of 515 nm.

BT 549 = test: NCI in vitro 60 human tumor cell line assay; conditions: BT-549, 48 h, read-out: Total Growth Inhibition (TGI)
Method: as §1

T 47D = test: NCI in vitro 60 human tumor cell line assay; conditions: T47D, 48 h, read-out: Total Growth Inhibition (TGI)
Method: as §1

786-O = test: NCI in vitro 60 human tumor cell line assay; conditions: 786-0, 48 h, read-out: Total Growth Inhibition (TGI)
Method: as §2

A 498 = test: NCI in vitro 60 human tumor cell line assay; conditions: A498, 48 h, read-out: Total Growth Inhibition (TGI)
Method: as §1

ACHN = test: NCI in vitro 60 human tumor cell line assay; conditions: 48 h, read-out: Total Growth Inhibition (TGI)
Method: as §1

CAKI = test: NCI in vitro 60 human tumor cell line assay; conditions: 48 h, read-out: Total Growth Inhibition (TGI)
Method: as §1

RXF 393 = test: NCI in vitro 60 human tumor cell line assay; conditions: RXF 393, 48 h, read-out: Total Growth Inhibition (TGI)
Method: as §1

SN12C = test: NCI in vitro 60 human tumor cell line assay; conditions: 48 h, read-out: Total Growth Inhibition (TGI)
Method: as §1

Work on `CCc1c2c(nc3ccccc13)-c1cc3c(c(=O)n1C2OCCO)COC(=O)[C@]3(O)CC` (stereo partly drawn) [Example 32, 5-(2'-Hydroxyethoxy)-7-ethylcamptothecin] yielded an IC (TGI) (KD 488; 48 h) of 2.28 µM and a GI50 (KD 488) of 0.246 µM.
With `CC[C@@]1(O)C(=O)OCc2c1cc1n(c2=O)C(OCCOC)c2cc3ccccc3nc2-1` (stereo partly drawn) [Example 43, 5-(2'-methoxyethoxy)camptothecin] the mean GI50 [1] was 2.23 µM, the IC (TGI) (MCF 7) was 17.8 µM and the IC (TGI) (HT 29) was 18.9 µM. The IC (TGI) (H 460) was 14.2 µM, the IC (TGI) (HCC 2998) was 23.2 µM and the IC (TGI) (HOP 62) was 3.92 µM. It also gave an IC (TGI) (H 226) of 6.89 µM, an IC (TGI) (H 23) of 2.52 µM and an IC (TGI) (COLO 205) of 37.3 µM. For the same compound, the IC (TGI) (KM 12) was 41.9 µM, the IC (TGI) [2] was 23.6 µM and the IC (TGI) (MCF7 / ADR / RES) was 9.3 µM.
`CC[C@@]1(O)C(=O)OCc2c1cc1n(c2=O)C(OCC(F)(F)F)c2cc3c([N+](=O)[O-])cccc3nc2-1` (stereo partly drawn) [Example 28, 9-Nitro-5-trifluoroethoxycamptothecin] showed a mean GI50 [1] of 0.46 µM, an IC (TGI) (HT 29) of 7.94 µM and an IC (TGI) (H 460) of 1.22 µM. The IC (TGI) (H 322M) was 30.2 µM, the IC (TGI) (HCC 2998) was 7.65 µM and the IC (TGI) (HCT 15) was greater than 30 µM. The IC (TGI) (UO 31) was 1.23 µM, the IC (TGI) (HOP 92) was 8.44 µM and the IC (TGI) (H 226) was 4.3 µM. The IC (TGI) (H 23) was 0.76 µM, the IC (TGI) (H 522) was 13 µM and the IC (TGI) (COLO 205) was 9.48 µM. The IC (TGI) (HCT 116) was 8.01 µM, the IC (TGI) (KM 12) was 27.4 µM and the IC (TGI) (MCF 7/ ADR) was 1.21 µM. For the same compound, the IC (TGI) (MDA-MB-435) was 11.4 µM, the IC (TGI) (MDA-N) was 13.4 µM and the IC (TGI) (BT 549) was 32 µM. The IC (TGI) (T 47D) was 1.09 µM, the IC (TGI) (786-O) was 0.85 µM and the IC (TGI) (A 498) was 1.76 µM. It also gave an IC (TGI) (ACHN) of 0.37 µM, an IC (TGI) (CAKI) of 0.75 µM and an IC (TGI) (RXF 393) of 15.9 µM. For the same compound, the IC (TGI) (SN12C) was 2.31 µM.

From patent EP0847397B1, “WATER-SOLUBLE C-RING ANALOGUES OF 20 (S)-CAMPTOTHECIN” (DR. REDDY'S RESEARCH FOUNDATION, priority 1996, dated 1997)
